Test results from patent publication US5910435A, “Method of folding proteins with synthetic dithiol catalysts” (Wisconsin Alumni Research Foundation, priority 1996, dated 1999).

How the values were obtained:
scrambled ribonuclease A = assay: In vitro unscrambling of non-native disulfide bonds (regain of ribonucleolytic activity); format: biochemical; conditions: 0, 20 or 200 μM; 1 mM reduced and 0.2 mM oxidized glutathione, pH 7.6, 30° C.; FIG. 5
Experimental: Disulfide bonds form readily in an oxidizing environment. These disulfide bonds may not, however, be the ones that exist in the native, active conformation of a protein. The desirable property in a synthetic protein foldase is the ability to catalyze the unscrambling of non-native disulfide bonds. The ability of BMC to catalyze the unscrambling of non-native disulfide bonds in vitro was assayed by a method similar to that reported previously by our group and others. Laboissiere et al, Protein Express. Purif. 6:700-706 (1995).
This assay is based on the disulfide bonds in ribonuclease A, a well-characterized enzyme. In its native, enzymatically active conformation, ribonuclease A has eight cysteine residues which participate in four specific disulfide bonds. […]
In the assay, BMC was tested for its ability to catalyze the regain of enzymatic activity in scrambled ribonuclease A. This regain in activity can only occur by the isomerization (or unscrambling) of the non-native disulfide bonds. […] In this test, the aliquot was added to 500 μL of 100 mM MES-HCl buffer, pH 6.0, containing 100 mM NaCl and 10 mM poly(C) RNA, which is a substrate for ribonuclease A. Ribonucleolytic activity was monitored by following the change in absorbance at 238 nm which accompanies the cleavage of poly(C) by enzymatically active ribonuclease A.

[1] = system: pdilΔ Saccharomyces cerevisiae; assay: Rescue of PDI-deficient yeast on 5-FOA plates; format: cell-based; conditions: for survival of colonies of PDI-deficient yeast after selection against the PDI plasmid: minimal medium plates containing 5-FOA, BMC at 10 mM, DTT by the same procedure
Experimental: The ability of a synthetic diol protein catalyst to catalyze protein folding in vivo was tested by its ability to replace the function of PDI in a eukaryotic cell. The cells used for this procedure were pdilΔ Saccharomyces cerevisiae, which have a deletion in their PDI1 gene rendering the expressed enzyme dysfunctional. The PDI1 gene is an essential gene for survival of S. cerevisiae. To enable these cells to live, the cells contain a plasmid that directs expression of S. cerevisiae PDI. This plasmid also directs the expression of the […] gene product. These cells were streaked onto plates of minimal medium containing 5-fluoroorotic acid (5-FOA) which makes the URA3 gene product toxic to S. cerevisiae. Accordingly, this selects against presence of the plasmid and surviving cells will have neither the plasmid nor PDI.
This test was run with plates containing 5-FOA which also contained 0 or 10 mM BMC. […] No colonies survived on the plate without BMC.
Cells from the colonies rescued with BMC were then plated onto rich medium without BMC.
This same procedure was repeated with the disulfide bond reducing agent dithiothrietol (DTT). DTT is a low molecular weight dithiol with a higher pKa and a lower E°' than BMC.

[2] = cited from earlier work
PDI deficient yeast = assay: Complementation of PDI-deficient yeast with thioredoxin and its active-site mutants; format: cell-based
Excerpt: Because the proper folding of proteins is of significant scientific and commercial interest, systems have been designed to help to study protein folding. One such system is based on a yeast cells which lack a nuclear gene for the PDI enzyme, and are therefore incapable of catalyzing the formation of the proper disulfide bonds required for biological activity of proteins. Such yeast cells can be grown so long as they harbor a plasmid that produces PDI, but the cells promptly expire when the plasmid PDI is removed. The ability of mutant, altered, or engineered forms of PDI to rescue the PDI-deficient yeast cultures from death is a test of the suitability of such altered isoforms to properly fold proteins. Investigation into the function of PDI, and its use in the unscrambling of non-native disulfide bonds, is described by Laboissiere et al., J. Biol. Chem. 270:47:28006-28009 (1995). Based on this test system, it has been possible to determine that the motif for PDI activity consists of a particular amino acid domain. This domain is shared in common with the reducing bacterial enzyme thioredoxin. The domain has the consensus sequence Cys-X-X-Cys (SEQ ID NO: 1 or C-X-X-C, where X is an amino acid, Edman, Nature 317:267-270 (1985).
That study was conducted using mutant PDI deficient yeast. […]

Molecule | catalysis of the regain of biological activity of a protein with scrambled disulfide bonds (scrambled ribonuclease A) | total yield of active protein, in the presence versus in the absence of the catalyst (scrambled ribonuclease A) | time until surviving colonies appeared ([1]; 5-FOA plate with 10 mM BMC) [days] | survival of colonies of PDI-deficient yeast after selection against the PDI plasmid [1] | pKa relative to BMC [2] | complementation (rescue) of PDI deficient yeast (PDI deficient yeast)
O=C(CS)NC1CCCCC1NC(=O)CS (stereo not shown) [BMC, N,N'-bis(2-mercaptoacetyl)-1,2-diaminocyclohexane] | significant catalysis | significantly greater | 5 | Surviving colonies appeared | – | –
O[C@@H](CS)[C@@H](O)CS (relative stereo) [DTT, dithiothrietol, reference compound] | – | – | – | no yeast colonies could be rescued | higher | –
thioredoxin: 12 kilodalton protein from E. coli, prokaryotic functional homolog of PDI, active site Cys-Gly-Pro-Cys | – | – | – | – | – | failed
